The supplement of paper PMC7840683

System: HepaRG
Experiment: LDH release cytotoxicity, % of total lysis control; higher = more cytotoxic
Conditions: 48 h
Procedure, shortened: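 HepaRG cells from a single lot were plated on collagen I-coated 96-well plates and treated in duplicate for 48 h with eight-point half-log series of test chemicals, starting at 100 µM, in serum-free induction medium containing 0.5% DMSO. Total lysis wells were given 0.1% Triton X. LDH released into 50 µL of spent medium was measured as resorufin fluorescence with CytoTox-ONE on a Tecan Safire. Percent cytotoxicity was normalized to on-plate vehicle and total lysis controls and then averaged across duplicates.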

CCOC(=O)C(C)(C)Oc1ccc(Cl)cc1 [Clofibrate]
Conditions | LDH release cytotoxicity [%]
0.03162 µM | -0.811
0.1 µM | -0.737
0.3162278 µM | -1.03
1 µM | -0.873
3.16228 µM | -1.56
10 µM | -0.987
31.6228 µM | -0.0208
100 µM | 1.51

COc1ccc(C=CS(=O)(=O)NC(=O)c2ccc(C)cc2Cl)cc1
Conditions | LDH release cytotoxicity [%]
0.03162 µM | -1.21
0.1 µM | -1.99
0.3162278 µM | -1.66
1 µM | -1.597
3.16228 µM | -1.41
10 µM | -1.42
31.6228 µM | -0.383
100 µM | 1.21

CC(C)CCO [Isopentyl alcohol]
Conditions | LDH release cytotoxicity [%]
0.0317809 µM | -1.55
0.1005 µM | -1.43
0.317809 µM | -2.18
1.005 µM | -2.36
3.17809 µM | -1.495
10.05 µM | -1.51
31.7809 µM | -1.18
100.5 µM | -0.0999

Cn1c(=O)c2c(ncn2C)n(C)c1=O [Caffeine]
Conditions | LDH release cytotoxicity [%]
0.03162 µM | -1.5
0.1 µM | -0.664
0.3162278 µM | -1.14
1 µM | -0.9619
3.16228 µM | -1.02
10 µM | -0.778
31.6228 µM | -0.135
100 µM | 1.03

O=[N+]([O-])C(CO)(CO)CO [2-(Hydroxymethyl)-2-nitro-1,3-propanediol]
Conditions | LDH release cytotoxicity [%]
0.03162 µM | 0.0153
0.1 µM | -1.5
0.3162278 µM | -1.73
1 µM | -0.843
3.16228 µM | -0.932
10 µM | -1.24
31.6228 µM | -0.797
100 µM | 0.918

CCCC(=NOCC)C1C(=O)CC(CC(C)SCC)CC1=O (configuration not stated) [Sethoxydim]
Conditions | LDH release cytotoxicity [%]
0.0317809 µM | -1.15
0.1005 µM | -1.26
0.317809 µM | -1.36
1.005 µM | -1.93
3.17809 µM | -1.21
10.05 µM | -0.579
31.7809 µM | -0.893
100.5 µM | 0.566

c1ccc(N=Nc2ccccc2)cc1 [Azobenzene]
Conditions | LDH release cytotoxicity [%]
0.03162 µM | -1.57
0.1 µM | -1.67
0.3162278 µM | -0.316
1 µM | -2
3.16228 µM | -1.63
10 µM | 0.0427
31.6228 µM | 1.14
100 µM | 3.66

COP(=S)(OC)SCN1C(=O)c2ccccc2C1=O [Phosmet]
Conditions | LDH release cytotoxicity [%]
0.03162 µM | -1.04
0.1 µM | -1.58
0.3162278 µM | -0.933
1 µM | -1.6
3.16228 µM | -1.56
10 µM | -1.14
31.6228 µM | -1.65
100 µM | 0.331

Cc1ccc(C)c(O)c1C [2,3,6-Trimethylphenol]
Conditions | LDH release cytotoxicity [%]
0.03162 µM | -2.75
0.1 µM | -1.45
0.3162278 µM | -1.53
1 µM | -1.64
3.16228 µM | -1.22
10 µM | -0.829
31.6228 µM | -0.517
100 µM | 0.375

N#CSCSc1nc2ccccc2s1 [2-(Thiocyanomethylthio)benzothiazole]
Conditions | LDH release cytotoxicity [%]
0.03162 µM | -0.587
0.1 µM | -0.847
0.3162278 µM | -0.155
1 µM | -0.646
3.16228 µM | 0.021
10 µM | -0.312
31.6228 µM | -0.754
100 µM | 1.03

Cc1ccc(S(=O)(=O)O)cc1C [Sodium xylenesulfonate]
Conditions | LDH release cytotoxicity [%]
0.03162 µM | -0.646
0.1 µM | -1.44
0.3162278 µM | -1.14
1 µM | -1.21
3.16228 µM | -1.1
10 µM | -1.23
31.6228 µM | -1.25
100 µM | 1.23

CC12CC1(C)C(=O)N(c1cc(Cl)cc(Cl)c1)C2=O (configuration not stated) [Procymidone]
Conditions | LDH release cytotoxicity [%]
0.03162 µM | -1.37
0.1 µM | -1.85
0.3162278 µM | -2.08
1 µM | -2.56
3.16228 µM | -2.762
10 µM | -1.32
31.6228 µM | -2.43
100 µM | -1.16

O=C(O)C(F)(F)C(F)(F)C(F)(F)C(F)(F)C(F)(F)C(F)(F)C(F)(F)C(F)(F)F [Perfluorononanoic acid]
Conditions | LDH release cytotoxicity [%]
0.03162 µM | -0.689
0.1 µM | -1.58
0.3162278 µM | -1.12
1 µM | -2.4
3.16228 µM | -1.4
10 µM | -1.71
31.6228 µM | -1.31
100 µM | 27.5

CSC(C)(C)CN=O [Aldicarb oxime]
Conditions | LDH release cytotoxicity [%]
0.03162 µM | -1.16
0.1 µM | -1.16
0.3162278 µM | -0.361
1 µM | 0.251
3.16228 µM | -0.674
10 µM | 0.43
31.6228 µM | 0.225
100 µM | 0.822

CCC1OC(=O)C(C)C(OC2CC(C)(OC)C(O)C(C)O2)C(C)C(OC2OC(C)CC(N(C)C)C2O)C(C)(O)CC(C)C(=O)C(C)C(O)C1(C)O (configuration not stated) [Erythromycin]
Conditions | LDH release cytotoxicity [%]
0.02356 µM | -1.71
0.0745 µM | -2.96
0.23559 µM | -1.94
0.745 µM | -3.63
2.3559 µM | -3.02
7.45 µM | -2.85
23.559 µM | -1.9
74.5 µM | -0.102

CCOc1ccc(C(C)(C)COCc2cccc(Oc3ccccc3)c2)cc1 [Etofenprox]
Conditions | LDH release cytotoxicity [%]
0.03162 µM | -2.22
0.1 µM | -3.48
0.3162278 µM | -2.37
1 µM | -2.59
3.16228 µM | -2.77
10 µM | -2.63
31.6228 µM | -2.47
100 µM | -1.82

C=CC(=O)NCNC(=O)C=C [N,N'-Methylenebisacrylamide]
Conditions | LDH release cytotoxicity [%]
0.03162 µM | -0.744
0.1 µM | -0.797
0.3162278 µM | -0.644
1 µM | -1.4
3.16228 µM | -0.3
10 µM | -0.328
31.6228 µM | -0.405
100 µM | 1.88

CC(C)(c1cc(Br)c(O)c(Br)c1)c1cc(Br)c(O)c(Br)c1 [3,3',5,5'-Tetrabromobisphenol A]
Conditions | LDH release cytotoxicity [%]
0.03162 µM | -1.12
0.1 µM | -1.08
0.3162278 µM | -0.948
1 µM | -1.1
3.16228 µM | -0.766
10 µM | -0.155
31.6228 µM | 0.933
100 µM | 3.36

CCCN(CCC)C(=O)SCC [EPTC]
Conditions | LDH release cytotoxicity [%]
0.03162 µM | 0.307
0.1 µM | -0.433
0.3162278 µM | -0.271
1 µM | -0.35
3.16228 µM | -0.208
10 µM | 0.499
31.6228 µM | 0.312
100 µM | 0.622
